Results from PubChem BioAssay (NCI).
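96-well plates; 48 h exposure; 5 concentrations. Endpoints by linear interpolation between flanking doses. Not reached: highest tested concentration assigned. GI50 = concentration required for 50% inhibition of growth. TGI: total growth inhibition.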

Columns and labels:
Assay in all cases: NCI tumour cell line growth inhibition, 48 h
CCRF-CEM leukemia = tested on: CCRF-CEM leukemia
DLD-1 colon = tested on: DLD-1 colon
ACHN renal = tested on: ACHN renal
K-562 leukemia = tested on: K-562 leukemia
NCI-H23 lung = tested on: NCI-H23 lung
OVCAR-4 ovarian = tested on: OVCAR-4 ovarian
SK-MEL-5 melanoma = tested on: SK-MEL-5 melanoma
DMS 273 small cell lung = tested on: DMS 273 small cell lung
OVCAR-3 ovarian = tested on: OVCAR-3 ovarian
PC-3 prostate = tested on: PC-3 prostate

CC(=O)n1nnc2ccc([N+](=O)[O-])cc21
TGI (CCRF-CEM leukemia): > 100 µM
TGI (DLD-1 colon): > 100 µM
TGI (ACHN renal): > 100 µM
TGI (K-562 leukemia): > 100 µM
TGI (NCI-H23 lung): > 100 µM
TGI (OVCAR-4 ovarian): > 100 µM
TGI (SK-MEL-5 melanoma): > 100 µM
TGI (DMS 273 small cell lung): > 100 µM
TGI (OVCAR-3 ovarian): > 100 µM

O=C1c2cccc([N+](=O)[O-])c2C(=O)c2nccnc21
TGI (CCRF-CEM leukemia): 5.65 µM
TGI (DLD-1 colon): 11.4 µM
TGI (ACHN renal): 15.1 µM
TGI (K-562 leukemia): 4.17 µM
TGI (NCI-H23 lung): 2.98 µM
TGI (OVCAR-4 ovarian): 2.8 µM
TGI (SK-MEL-5 melanoma): 1.13 µM
TGI (DMS 273 small cell lung): 12.3 µM
TGI (OVCAR-3 ovarian): 3.88 µM

CN(C)CCCOc1ccc(/C=C2/CCC/C(=C/c3ccc(OCCCN(C)C)cc3)C2=O)cc1
TGI (CCRF-CEM leukemia): 3.84 µM
TGI (DLD-1 colon): 3.21 µM
TGI (ACHN renal): 4.13 µM
TGI (K-562 leukemia): 1.24 µM
TGI (NCI-H23 lung): 3.63 µM
TGI (OVCAR-4 ovarian): 7.1 µM
TGI (SK-MEL-5 melanoma): 3.92 µM
TGI (DMS 273 small cell lung): 2.96 µM
TGI (OVCAR-3 ovarian): 5.56 µM

Cc1cc(Cl)ccc1NC(=O)CC1SC(=NC(=O)c2ccccc2Cl)NC1=O (centres undefined)
TGI (CCRF-CEM leukemia): 8.66 µM
TGI (DLD-1 colon): 34 µM
TGI (ACHN renal): 30.8 µM
TGI (K-562 leukemia): 47.6 µM
TGI (NCI-H23 lung): > 100 µM
TGI (OVCAR-4 ovarian): 38.6 µM
TGI (SK-MEL-5 melanoma): 95.7 µM
TGI (DMS 273 small cell lung): 37 µM
TGI (OVCAR-3 ovarian): 36.3 µM

CC(C)COC(=O)c1ccc(N=Cc2ccc(C=Nc3ccc(C(=O)OCC(C)C)cc3)cc2)cc1
TGI (DLD-1 colon): > 100 µM
TGI (ACHN renal): > 100 µM
TGI (K-562 leukemia): > 100 µM
TGI (NCI-H23 lung): > 100 µM
TGI (OVCAR-4 ovarian): > 100 µM
TGI (DMS 273 small cell lung): > 100 µM
TGI (OVCAR-3 ovarian): > 100 µM

N#CC(C#N)=Cc1ccc(C(O)P(=O)(O)O)cc1 (centres undefined)
TGI (CCRF-CEM leukemia): > 100 µM
TGI (DLD-1 colon): > 100 µM
TGI (ACHN renal): > 100 µM
TGI (K-562 leukemia): > 100 µM
TGI (NCI-H23 lung): > 100 µM
TGI (OVCAR-4 ovarian): > 100 µM
TGI (SK-MEL-5 melanoma): > 100 µM
TGI (DMS 273 small cell lung): > 100 µM
TGI (OVCAR-3 ovarian): > 100 µM

Cc1ccc(NC(=O)CCc2nnc3s/c(=C\c4cccc([N+](=O)[O-])c4)c(=O)n23)cc1
TGI (CCRF-CEM leukemia): > 100 µM
TGI (DLD-1 colon): > 100 µM
TGI (ACHN renal): > 100 µM
TGI (K-562 leukemia): > 100 µM
TGI (NCI-H23 lung): > 100 µM
TGI (OVCAR-4 ovarian): > 100 µM
TGI (SK-MEL-5 melanoma): > 100 µM
TGI (DMS 273 small cell lung): > 100 µM
TGI (OVCAR-3 ovarian): > 100 µM

O=C(Nc1ccccc1)n1cc(-c2ccccn2)c(N2CCOCC2)n1
TGI (CCRF-CEM leukemia): > 100 µM
TGI (DLD-1 colon): > 100 µM
TGI (ACHN renal): > 100 µM
TGI (K-562 leukemia): > 100 µM
TGI (OVCAR-4 ovarian): > 100 µM
TGI (SK-MEL-5 melanoma): > 100 µM
TGI (DMS 273 small cell lung): 42.1 µM
TGI (OVCAR-3 ovarian): 29.5 µM

Cc1ccc(C(=O)C(c2nc3n(c2O)C(=N)N=N3)c2nc3n(c2O)C(=N)N=N3)cc1 (centres undefined)
TGI (CCRF-CEM leukemia): > 100 µM
TGI (DLD-1 colon): > 100 µM
TGI (ACHN renal): > 100 µM
TGI (K-562 leukemia): > 100 µM
TGI (NCI-H23 lung): > 100 µM
TGI (OVCAR-4 ovarian): > 100 µM
TGI (SK-MEL-5 melanoma): > 100 µM
TGI (DMS 273 small cell lung): > 100 µM
TGI (OVCAR-3 ovarian): > 100 µM

COC(=O)C(=O)C(C#N)c1cccc(Cl)c1 (centres undefined)
TGI (CCRF-CEM leukemia): > 100 µM
TGI (DLD-1 colon): > 100 µM
TGI (ACHN renal): > 100 µM
TGI (K-562 leukemia): > 100 µM
TGI (NCI-H23 lung): > 100 µM
TGI (OVCAR-4 ovarian): > 100 µM
TGI (SK-MEL-5 melanoma): > 100 µM
TGI (DMS 273 small cell lung): > 100 µM
TGI (OVCAR-3 ovarian): > 100 µM

COc1cccc(N2C(=O)/C(=C/c3ccc(N(CCC#N)CCC#N)cc3)N=C2c2cc([N+](=O)[O-])ccc2Cl)c1
TGI (CCRF-CEM leukemia): > 100 µM
TGI (DLD-1 colon): > 100 µM
TGI (ACHN renal): > 100 µM
TGI (K-562 leukemia): > 100 µM
TGI (NCI-H23 lung): > 100 µM
TGI (OVCAR-4 ovarian): > 100 µM
TGI (SK-MEL-5 melanoma): > 100 µM
TGI (DMS 273 small cell lung): > 100 µM
TGI (OVCAR-3 ovarian): > 100 µM

O=CC1CCC=CC1NC(=O)OCc1ccccc1 (centres undefined)
TGI (CCRF-CEM leukemia): > 100 µM
TGI (DLD-1 colon): > 100 µM
TGI (ACHN renal): > 100 µM
TGI (K-562 leukemia): > 100 µM
TGI (NCI-H23 lung): > 100 µM
TGI (OVCAR-4 ovarian): > 100 µM
TGI (SK-MEL-5 melanoma): > 100 µM
TGI (DMS 273 small cell lung): > 100 µM

O=C(CCC(=O)Nc1ccc(Cl)cc1)CC(=O)c1ccc2ccccc2c1
TGI (CCRF-CEM leukemia): > 100 µM
TGI (DLD-1 colon): > 100 µM
TGI (ACHN renal): > 100 µM
TGI (K-562 leukemia): > 100 µM
TGI (NCI-H23 lung): > 100 µM
TGI (OVCAR-4 ovarian): > 100 µM
TGI (SK-MEL-5 melanoma): > 100 µM
TGI (DMS 273 small cell lung): > 100 µM
TGI (OVCAR-3 ovarian): > 100 µM

CCOC(=O)NC(=O)c1cn(CCCCCCCCCCC(=O)NCCCN2CCN(CCCNC(=O)CCCCCCCCCCn3cc(C(=O)NC(=O)OCC)c(=O)[nH]c3=O)CC2)c(=O)[nH]c1=O
TGI (CCRF-CEM leukemia): > 100 µM
TGI (DLD-1 colon): > 100 µM
TGI (ACHN renal): > 100 µM
TGI (K-562 leukemia): > 100 µM
TGI (NCI-H23 lung): > 100 µM
TGI (DMS 273 small cell lung): > 100 µM
TGI (OVCAR-3 ovarian): > 10 µM

Cc1cc2nc3c(=O)[nH]c(=O)nc-3n(CC(O)C(O)C(O)CO)c2cc1N (centres undefined)
TGI (CCRF-CEM leukemia): > 100 µM
TGI (ACHN renal): > 100 µM
TGI (K-562 leukemia): > 100 µM
TGI (NCI-H23 lung): > 100 µM
TGI (OVCAR-4 ovarian): > 100 µM
TGI (SK-MEL-5 melanoma): > 100 µM
TGI (DMS 273 small cell lung): > 100 µM
TGI (OVCAR-3 ovarian): > 100 µM

Cc1cc(O[C@@H]2O[C@@H](C)[C@H](O)[C@@H](O)[C@H]2O)c2c3c(c(O[C@@H]4O[C@@H](C)[C@H](O)[C@@H](O)[C@H]4O)cc2c1)C(=O)c1c(O)cccc1C3=O
GI50 (CCRF-CEM leukemia): > 30 µM
TGI (CCRF-CEM leukemia): > 30 µM
GI50 (PC-3 prostate): > 30 µM
TGI (PC-3 prostate): > 30 µM
GI50 (ACHN renal): > 30 µM
TGI (ACHN renal): > 30 µM
GI50 (K-562 leukemia): > 30 µM
TGI (K-562 leukemia): > 30 µM
GI50 (NCI-H23 lung): > 30 µM
TGI (NCI-H23 lung): > 30 µM
GI50 (OVCAR-4 ovarian): > 30 µM
TGI (OVCAR-4 ovarian): > 30 µM
GI50 (SK-MEL-5 melanoma): > 30 µM
TGI (SK-MEL-5 melanoma): > 30 µM
GI50 (OVCAR-3 ovarian): > 30 µM
TGI (OVCAR-3 ovarian): > 30 µM

COC1=CC(c2ccc[nH]2)=N/C1=C\c1[nH]c(C)c(C(=O)Oc2ccccc2)c1C
GI50 (CCRF-CEM leukemia): 0.0625 µM
TGI (CCRF-CEM leukemia): > 100 µM
GI50 (PC-3 prostate): 0.117 µM
TGI (PC-3 prostate): > 100 µM
GI50 (ACHN renal): 0.23 µM
TGI (ACHN renal): 1.17 µM
GI50 (K-562 leukemia): 0.292 µM
TGI (K-562 leukemia): > 100 µM
GI50 (NCI-H23 lung): 0.227 µM
TGI (NCI-H23 lung): 1.95 µM
GI50 (OVCAR-4 ovarian): 0.236 µM
GI50 (SK-MEL-5 melanoma): 0.0929 µM
TGI (SK-MEL-5 melanoma): 0.269 µM
GI50 (OVCAR-3 ovarian): 0.212 µM
TGI (OVCAR-3 ovarian): 1.18 µM

Cc1ccc2nc(Sc3c([N+](=O)[O-])ncn3C)[nH]c2c1
TGI (DLD-1 colon): 49.8 µM
TGI (ACHN renal): > 100 µM
TGI (NCI-H23 lung): 50.5 µM
TGI (OVCAR-4 ovarian): 79.2 µM
TGI (SK-MEL-5 melanoma): 33.1 µM
TGI (DMS 273 small cell lung): 40.1 µM
TGI (OVCAR-3 ovarian): 56.7 µM

O=C(NCCCl)NCCN1c2nc3ccccc3cc2Sc2cc3ccccc3nc21
GI50 (CCRF-CEM leukemia): 0.3 µM
TGI (CCRF-CEM leukemia): 3.62 µM
GI50 (PC-3 prostate): 0.719 µM
TGI (PC-3 prostate): 20.1 µM
GI50 (ACHN renal): 3.02 µM
TGI (ACHN renal): > 45.9 µM
GI50 (K-562 leukemia): 2.14 µM
TGI (K-562 leukemia): > 25 µM
GI50 (NCI-H23 lung): 1.43 µM
TGI (NCI-H23 lung): > 45.6 µM
GI50 (OVCAR-4 ovarian): 0.9 µM
TGI (OVCAR-4 ovarian): > 23.4 µM
GI50 (SK-MEL-5 melanoma): 0.168 µM
TGI (SK-MEL-5 melanoma): 1.25 µM
GI50 (OVCAR-3 ovarian): 1.45 µM
TGI (OVCAR-3 ovarian): 16.1 µM

COc1ccc2nc3cc(Cl)ccc3c(NCCNCC(O)CO)c2c1 (centres undefined)
GI50 (CCRF-CEM leukemia): 1.69 µM
TGI (CCRF-CEM leukemia): 13.8 µM
GI50 (PC-3 prostate): 2.34 µM
TGI (PC-3 prostate): 10.7 µM
GI50 (ACHN renal): 2.27 µM
TGI (ACHN renal): 13.3 µM
GI50 (K-562 leukemia): 0.807 µM
TGI (K-562 leukemia): 10.2 µM
GI50 (NCI-H23 lung): 1.62 µM
TGI (NCI-H23 lung): 7.87 µM
GI50 (OVCAR-4 ovarian): 1.35 µM
TGI (OVCAR-4 ovarian): 9.15 µM
GI50 (SK-MEL-5 melanoma): 3.3 µM
TGI (SK-MEL-5 melanoma): 11.1 µM
GI50 (OVCAR-3 ovarian): 1.81 µM
TGI (OVCAR-3 ovarian): 8.55 µM

CCC1=C[C@@H]2CN(C1)Cc1c([nH]c3ccccc13)[C@@](C(=O)OC)(c1cc3c(cc1OC)N(C)[C@H]1[C@@](O)(C(=O)OC)[C@H](OC(C)=O)[C@]4(CC)C=CCN5CC[C@]31[C@@H]54)C2
GI50 (CCRF-CEM leukemia): < 0.01 µM
TGI (CCRF-CEM leukemia): 0.71 µM
GI50 (PC-3 prostate): < 0.01 µM
TGI (PC-3 prostate): 21.8 µM
GI50 (ACHN renal): 0.194 µM
TGI (ACHN renal): 25.6 µM
GI50 (K-562 leukemia): < 0.01 µM
TGI (K-562 leukemia): 18.9 µM
GI50 (NCI-H23 lung): < 0.0187 µM
TGI (NCI-H23 lung): 41.4 µM
GI50 (OVCAR-4 ovarian): < 0.01 µM
TGI (OVCAR-4 ovarian): 21 µM
GI50 (SK-MEL-5 melanoma): < 0.01 µM
TGI (SK-MEL-5 melanoma): 0.119 µM
GI50 (OVCAR-3 ovarian): < 0.01 µM
TGI (OVCAR-3 ovarian): < 0.01 µM
